A short description of data set [1]: Test Example 1: oral absorption in rats, serum concentrations of tolvaptan after oral suspension. To be noted: male rats deprived of food about 18 hours, forced oral administration of suspension, 1 mg of tolvaptan per kg, Mean ± S.D. (n = 3 or 4). Type of data set: in vivo. The method, then:
The compounds obtained in Examples 1, 50, and 52 were used as test compounds.
Each test compound, (Examples 1, 50, and 52) equivalent to 10 mg of tolvaptan, and hypromellose (125 mg) were suspended in 25 ml of water for injection in a porcelain mortar, to thereby obtain a suspension equivalent to 0.4 mg of tolvaptan per ml of suspension.
A spray-dried tolvaptan powder equivalent to 60 mg of tolvaptan, which was prepared in a similar manner to Example 3 of Japanese Unexamined Patent Publication No. 1999-21241, was suspended in 50 ml of water for injection in a porcelain mortar. This suspension was diluted three-fold with water for injection, preparing a suspension of spray-dried powder equivalent to 0.4 mg of tolvaptan per ml of suspension.
The following tests were conducted to examine the oral absorption features of each suspension. Male rats (body weight: about 180 g) that had been deprived of food for about 18 hours were used as test animals. The above suspensions were each administered by forced oral administration using a sonde for oral administration at a dose of 2.5 ml/kg of body weight, producing 1 mg of tolvaptan per kg of body weight. The blood samples were collected from the jugular vein under light diethyl ether anesthesia at the time of 0.5 hour, 1 hour, 2 hours, 4 hours, 6 hours, and 8 hours later after dosing. The serum concentrations of tolvaptan (ng/ml) were determined by using UPLC-MS/MS (Waters).
The average phaLmacokinetic parameters were calculated from the results.

Data set [2] can be described thus: Test Example 2: oral absorption in rats, serum concentrations of tolvaptan after oral solution or suspension. Type of data set: in vivo. To be noted: rat, male rats fasted about 18 hours, forced oral administration of suspension or solution, 1 mg of tolvaptan per kg, Mean ± S.D. (n = 4). The method, then: The compounds obtained in Examples 74 was used as test compounds.
The test compound, (Examples 1) equivalent to 10 mg of tolvaptan, and hydroxypropylcellulose (5 mg) was dissolved in 25 ml of water for injection in a porcelain mortar, to thereby obtain a solution equivalent to 0.4 mg of tolvaptan per ml.
A spray-dried tolvaptan powder equivalent to 10 mg of tolvaptan was suspended in 25 ml of water for injection in a porcelain mortar, to obtain a suspension of spray-dried powder equivalent to 0.4 mg of tolvaptan per ml of suspension.
The following tests were conducted to examine the oral absorption features of each suspension and solution. Male rats (body weight: about 160 g) that had been fasted for about 18 hours were used as test animals. The above suspension or solution were each administered by forced oral administration using a sonde for oral administration at a dose of 2.5 ml/kg of body weight, producing 1 mg of tolvaptan per kg of body weight. The blood samples were collected from the jugular vein under light diethyl ether anesthesia at the time of 0.5 hour, 1 hour, 2 hours, 3 hours, 4 hours, 6 hours, 8 hours and 10 hours later after dosing. The serum concentrations of tolvaptan (ng/ml) were determined by using UPLC-MS/MS (Waters).
The average pharmacokinetic parameters were calculated from the results.

Each structure is given as a SMILES string.

By AUC(0-inf) is commonly meant the area under the concentration-time curve extrapolated to infinity. A low value points to low exposure. In general, MRT inf refers to a mean duration of stay, worked out from the concentration-time curve. As usually defined, the Cmax is the maximum level reached in the sampled fluid or tissue. The Tmax is the time at which the peak concentration occurs.

Regarding `Cc1ccccc1C(=O)Nc1ccc(C(=O)N2CCCC(O)c3cc(Cl)ccc32)c(C)c1` (stereo not drawn) [Tolvaptan], in data set [1] (rat), the AUC(0-inf) was found to be 80.9 ± 28.5 ng·h/mL and the MRT inf turned out to be 2.95 ± 0.35 h. Moreover, in data set [1] (rat, read-out: Cmax), the Cmax amounted to 26.4 ± 12.9 ng/mL. The Tmax in data set [1] (rat, read-out: Tmax) was 1.5 ± 0.58 h. Moreover, in data set [2], the AUC(0-inf) came to 92.4 ± 27 ng·h/mL, the peak level (Cmax) was 26.9 ± 11.6 ng/mL, the MRT inf came to 2.96 ± 0.47 h and the Tmax worked out at 1 h.
`Cc1ccccc1C(=O)Nc1ccc(C(=O)N2CCCC(OC(=O)CCC(=O)O)c3cc(Cl)ccc32)c(C)c1` (stereo not drawn) [Example 1, {7-Chloro-1-[2-methyl-4-(2-methyl-benzoylamino)-benzoyl]-2,3,4,5-tetrahydro-1H-benzo[b]azepin-5-yl} Succinate]: in data set [1], the “AUC∞” value amounted to 96.1 ± 18.1 ng·h/mL, the Cmax is reported as 16.2 ± 4.8 ng/mL, the “MRT∞” value turned out to be 4.45 ± 0.64 h and the Tmax is 2.00 ± 0.00 h.

Source of the values: US9073868B2, “Benzazepine derivatives useful as vasopressin antagonists” (Otsuka Pharmaceutical Co., Ltd., priority 2007, dated 2015).
